According to patent US20070003531A1, “Methods for improving immunotherapy by enhancing survival of antigen-specific cytotoxic T lymphocytes” (University of Connecticut, priority 2005, published 2007):
Entries after “also recorded” stand apart in the source; their conditions may differ.

Experiments:
[1] = test system: AIF translocation in MART-127-35 specific CTL; test: Mitochondrio-nuclear translocation/release of AIF in CTL during AICD; format: cell-based, human; conditions: CTL restimulated by cognate epitope
Excerpt: FIG. 14. Nuclear translocation of AIF and effect of SP600125 on the AIF release and such translocation. The MART-1 epitope specific CTLs generated in the in vitro CTL generation protocol were restimulated by the cognate epitope or a control epitope in the presence or absence of the JNK inhibitor SP600125. (A) Western blot of heavy membrane faction (HM) and cytosolic fraction (S-100) of control CTL (C) and CTLs restimulated by the cognate peptide (M1). As shown, AIF is released in the cytosol of CTLs encountering the cognate peptide without any release of cytochrome c. (B) Effect of SP600125 on AIF release in CD3 induced AICD in Jurkat cells. As shown, AIF is released without cytochrome c release in these cells and SP600125 interferes with the AIF release. (C) Densitometric analysis of the SP600125 effect on AIF release.
Sub-cellular Fractionation. Sub-cellular fractionation was done according to Gross, et al., with minor modifications. Heavy membrane and light membrane fractions were solublized in RIPA buffer supplemented with protease inhibitors and the proteins extracted from heavy membrane (HM), light membrane (LM) and supernatant (S-100) fractions were analyzed by immuno-blot analysis.
Immunofluorescence microscopy. […] The cells were fixed with 4% para-formaldehyde in PBS and stained with appropriate antibodies for co-localization of proteins by fluorescence microscopy. […]

[2] = test system: phosphorylated Bim in CTL; test: Generation of short phosphorylated Bim fragment in CTL during AICD; format: cell-based, human; conditions: CTLs encountering the MART-1 peptide
Excerpt: FIG. 16. Mitochondrial localization of JNK in the CTL. (A)—Heavy membrane fractions from CTLs in steady state (C), restimulated by the cognate peptide (M1) and control peptide (M3) and the corresponding cytosolic fractions (S-100) were probed for the presence for JNKs. As shown, JNK preferentially localized in the membrane fraction. (B)—The generation of short pBim fragment during AICD and the effect of SP600125 on the generation of this fragment. Mart-1 epitope specific control CTLs (c), and CTLs encountering the cognate peptide (M1), or encountering a control peptide (M3) and encountering the cognate peptide in the presence of SP600125 (SP) or encountering the cognate peptide in the presence of ERK1/2 inhibitor (PD)were probed with an anti-phosphorylated Bim antibody. A phosphorylated short fragment of Bim is generated in the CTLs encountering the MART-1 peptide and this is blocked by SP600125. (C)—Western blot of whole cell lysate of CTLs showing interaction between JNK and VDAC in CTLs (c=control, M1=CTL restimulated by the cognate peptide) Anti-CD8 Ab was used as a control antibody for immunoprecipitation.

[3] = test system: helper T cells; test: AICD in helper T cells; format: cell-based
Excerpt: Thus, JNK inhibitors, when administered alone or in combination with other therapeutics, have utility for the treatment of diseases, including AIDS, for which the death of helper T cells is a factor in the etiology, mechanism or progression of that disease.

[4] = test system: MART-127-35 tetramer+/CD8+ CTLs; test: Survival of antigen specific CTLs five days after secondary encounter of the epitope; format: cell-based, human; conditions: day five in IL-15 after overnight co-culture with cognate epitope; inhibitor 25 μM then washed off
Protocol: FIG. 13. Survival of the antigen specific CTLs following secondary encounter of the epitope in the presence of anthra[1,9-cd]pyrazol-6(2H)-one (SP600125) and recovery of function in the pyrazoloanthrone rescued CTLs. Effector cells were co-cultured with peptide pulsed T2 cells in the presence or absence of the kinase inhibitors (25 μM). The cultures were washed about 18 h later and then recultured in IL-15 containing medium. On day five, the numbers of the viable antigen specific CTLs were determined. […] The number (11%) of MART-127-35 tetramer^+/CD8^+ population exposed to MART-127-35 peptide pulsed T2 cells (T2/M1) is a reflection of loss of epitope specific CTLs from AICD. […] (B) IFN-γ response by the recovered populations (M3=MAGE-3271-279, M1=MART-127-35).
Finally, the functional status of SP600125 rescued CTLs upon continuous culture was examined. After overnight exposure of the CTLs to the cognate epitope in the presence or absence of SP600125, the CTLs were washed and then maintained in continuous culture in IL-15 containing CM without the inhibitor. Five days after, the number of viable MART-127-35 tetramer positive cells were determined and their function was tested in the IFN-γ response assay. […] Remarkably, the rescued CTLs regained their capacity to synthesize IFN-γ (FIG. 13B).

## O=C1c2ccccc2-c2n[nH]c3cccc1c23 [SP600125, anthra[1,9-cd]pyrazol-6(2H)-one]
[1]
  mitochondrio-nuclear translocation/release of AIF in CTL: blocks; also recorded: blocking effect
[2]
  generation/phosphorylation of short phosphorylated Bim fragment: inhibitable; also recorded: blocked
[3]
  AICD in helper T cells: inhibit/prevent
[4]
  fraction of starting epitope specific population recovered: larger fraction
